# Measured values taken from PubChem BioAssay (NCI).
#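 Compound exposure: 48 hours, 5 concentrations, 96-well plates. Here, GI50 denotes the concentration required for 50% inhibition of growth. TGI denotes the concentration required for complete inhibition of growth.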
# How the values were obtained:
# Experiment in all cases: NCI-60 cell line screen, 48 h
# HS 578T breast = tested on: HS 578T breast
# SK-MEL-5 melanoma = tested on: SK-MEL-5 melanoma
# DU-145 prostate = tested on: DU-145 prostate
# MALME-3M melanoma = tested on: MALME-3M melanoma
# A498 renal = tested on: A498 renal
# OVCAR-8 ovarian = tested on: OVCAR-8 ovarian
# COLO 205 colon = tested on: COLO 205 colon
# NCI-H226 lung = tested on: NCI-H226 lung
# MDA-MB-435 = tested on: MDA-MB-435
# T-47D breast = tested on: T-47D breast
# SF-268 CNS = tested on: SF-268 CNS
# RPMI-8226 leukemia = tested on: RPMI-8226 leukemia
# IGROV1 ovarian = tested on: IGROV1 ovarian
# SR leukemia = tested on: SR leukemia
# HCC-2998 colon = tested on: HCC-2998 colon
# PC-3 prostate = tested on: PC-3 prostate
# NCI-H460 lung = tested on: NCI-H460 lung
# TK-10 renal = tested on: TK-10 renal
# NCI/ADR-RES ovarian = tested on: NCI/ADR-RES ovarian
# NCI-H23 lung = tested on: NCI-H23 lung
# HCT-116 colon = tested on: HCT-116 colon
# OVCAR-3 ovarian = tested on: OVCAR-3 ovarian
# MCF7 breast = tested on: MCF7 breast
# M14 melanoma = tested on: M14 melanoma
# UACC-257 melanoma = tested on: UACC-257 melanoma
# SNB-19 CNS = tested on: SNB-19 CNS
# CCRF-CEM leukemia = tested on: CCRF-CEM leukemia
# HT29 colon = tested on: HT29 colon
# U251 CNS = tested on: U251 CNS
# SK-MEL-2 melanoma = tested on: SK-MEL-2 melanoma
# EKVX NSCLC = tested on: EKVX NSCLC
# MDA-MB-231 breast = tested on: MDA-MB-231 breast
# LOX IMVI melanoma = tested on: LOX IMVI melanoma
# HL-60(TB) leukemia = tested on: HL-60(TB) leukemia
# SNB-75 CNS = tested on: SNB-75 CNS
# HOP-62 NSCLC = tested on: HOP-62 NSCLC
# SK-MEL-28 melanoma = tested on: SK-MEL-28 melanoma
# MOLT-4 leukemia = tested on: MOLT-4 leukemia
# A549 NSCLC = tested on: A549 NSCLC
# UACC-62 melanoma = tested on: UACC-62 melanoma
# SN12C renal = tested on: SN12C renal
# UO-31 renal = tested on: UO-31 renal
# NCI-H522 lung = tested on: NCI-H522 lung
# OVCAR-4 ovarian = tested on: OVCAR-4 ovarian
# SK-OV-3 ovarian = tested on: SK-OV-3 ovarian
# HOP-92 NSCLC = tested on: HOP-92 NSCLC
# HCT-15 colon = tested on: HCT-15 colon
# SF-539 CNS = tested on: SF-539 CNS
# BT-549 breast = tested on: BT-549 breast
# K-562 leukemia = tested on: K-562 leukemia
# 786-0 renal = tested on: 786-0 renal
# SF-295 CNS = tested on: SF-295 CNS
# OVCAR-5 ovarian = tested on: OVCAR-5 ovarian
# KM12 colon = tested on: KM12 colon
# ACHN renal = tested on: ACHN renal
# SW-620 colon = tested on: SW-620 colon
# CAKI-1 renal = tested on: CAKI-1 renal
smiles,measurement,setting,value
O=C1CC(c2ccccc2)Cc2nc3ccc(Cl)cc3cc21 (centres undefined),GI50,HS 578T breast,351 nM
same,TGI,HS 578T breast,> 100000 nM
same,GI50,SK-MEL-5 melanoma,309 nM
same,TGI,SK-MEL-5 melanoma,2370 nM
same,GI50,DU-145 prostate,217 nM
same,TGI,DU-145 prostate,> 100000 nM
same,GI50,MALME-3M melanoma,45.3 nM
same,TGI,MALME-3M melanoma,52900 nM
same,GI50,A498 renal,50.3 nM
same,TGI,A498 renal,401 nM
same,GI50,OVCAR-8 ovarian,386 nM
same,TGI,OVCAR-8 ovarian,> 100000 nM
same,GI50,COLO 205 colon,344 nM
same,TGI,COLO 205 colon,3000 nM
same,GI50,NCI-H226 lung,795 nM
same,TGI,NCI-H226 lung,> 23600 nM
same,GI50,MDA-MB-435,23.5 nM
same,TGI,MDA-MB-435,64.9 nM
same,GI50,T-47D breast,6170 nM
same,TGI,T-47D breast,> 89000 nM
same,GI50,SF-268 CNS,6040 nM
same,TGI,SF-268 CNS,> 100000 nM
same,GI50,RPMI-8226 leukemia,2780 nM
same,TGI,RPMI-8226 leukemia,37800 nM
same,GI50,IGROV1 ovarian,397 nM
same,TGI,IGROV1 ovarian,> 100000 nM
same,GI50,SR leukemia,55.3 nM
same,TGI,SR leukemia,35200 nM
same,GI50,HCC-2998 colon,2390 nM
same,TGI,HCC-2998 colon,20200 nM
same,GI50,PC-3 prostate,293 nM
same,TGI,PC-3 prostate,> 100000 nM
same,GI50,NCI-H460 lung,343 nM
same,TGI,NCI-H460 lung,> 34500 nM
same,GI50,TK-10 renal,22300 nM
same,TGI,TK-10 renal,> 100000 nM
same,GI50,NCI/ADR-RES ovarian,58.6 nM
same,TGI,NCI/ADR-RES ovarian,5210 nM
same,GI50,NCI-H23 lung,562 nM
same,TGI,NCI-H23 lung,> 100000 nM
same,GI50,HCT-116 colon,47.2 nM
same,TGI,HCT-116 colon,> 49500 nM
same,GI50,OVCAR-3 ovarian,313 nM
same,TGI,OVCAR-3 ovarian,1160 nM
same,GI50,MCF7 breast,2420 nM
same,TGI,MCF7 breast,> 100000 nM
same,GI50,M14 melanoma,35.6 nM
same,TGI,M14 melanoma,23800 nM
same,GI50,UACC-257 melanoma,15600 nM
same,TGI,UACC-257 melanoma,> 85400 nM
same,GI50,SNB-19 CNS,462 nM
same,TGI,SNB-19 CNS,> 100000 nM
same,GI50,CCRF-CEM leukemia,39.5 nM
same,TGI,CCRF-CEM leukemia,> 100000 nM
same,GI50,HT29 colon,246 nM
same,TGI,HT29 colon,> 100000 nM
same,GI50,U251 CNS,644 nM
same,TGI,U251 CNS,> 62200 nM
same,GI50,SK-MEL-2 melanoma,207 nM
same,TGI,SK-MEL-2 melanoma,> 100000 nM
same,GI50,EKVX NSCLC,732 nM
same,TGI,EKVX NSCLC,> 100000 nM
same,GI50,MDA-MB-231 breast,538 nM
same,TGI,MDA-MB-231 breast,> 100000 nM
same,GI50,LOX IMVI melanoma,626 nM
same,TGI,LOX IMVI melanoma,26200 nM
same,GI50,HL-60(TB) leukemia,143 nM
same,TGI,HL-60(TB) leukemia,566 nM
same,GI50,SNB-75 CNS,126 nM
same,TGI,SNB-75 CNS,70300 nM
same,GI50,HOP-62 NSCLC,459 nM
same,TGI,HOP-62 NSCLC,> 100000 nM
same,GI50,SK-MEL-28 melanoma,1050 nM
same,TGI,SK-MEL-28 melanoma,> 100000 nM
same,GI50,MOLT-4 leukemia,64.4 nM
same,TGI,MOLT-4 leukemia,> 100000 nM
same,GI50,A549 NSCLC,451 nM
same,TGI,A549 NSCLC,> 100000 nM
same,GI50,UACC-62 melanoma,150 nM
same,TGI,UACC-62 melanoma,35500 nM
same,GI50,SN12C renal,518 nM
same,TGI,SN12C renal,> 84900 nM
same,GI50,UO-31 renal,263 nM
same,TGI,UO-31 renal,> 93000 nM
same,GI50,NCI-H522 lung,194 nM
same,TGI,NCI-H522 lung,19000 nM
same,GI50,OVCAR-4 ovarian,7260 nM
same,TGI,OVCAR-4 ovarian,> 100000 nM
same,GI50,SK-OV-3 ovarian,753 nM
same,TGI,SK-OV-3 ovarian,> 100000 nM
same,GI50,HOP-92 NSCLC,1510 nM
same,TGI,HOP-92 NSCLC,42500 nM
same,GI50,HCT-15 colon,511 nM
same,TGI,HCT-15 colon,66600 nM
same,GI50,SF-539 CNS,211 nM
same,TGI,SF-539 CNS,642 nM
same,GI50,BT-549 breast,503 nM
same,TGI,BT-549 breast,11300 nM
same,GI50,K-562 leukemia,85.9 nM
same,TGI,K-562 leukemia,> 100000 nM
same,GI50,786-0 renal,815 nM
same,TGI,786-0 renal,> 74700 nM
same,GI50,SF-295 CNS,339 nM
same,TGI,SF-295 CNS,17300 nM
same,GI50,OVCAR-5 ovarian,791 nM
same,TGI,OVCAR-5 ovarian,> 100000 nM
same,GI50,KM12 colon,342 nM
same,TGI,KM12 colon,22700 nM
same,GI50,ACHN renal,261 nM
same,TGI,ACHN renal,> 100000 nM
same,GI50,SW-620 colon,323 nM
same,TGI,SW-620 colon,> 100000 nM
same,GI50,CAKI-1 renal,112 nM
same,TGI,CAKI-1 renal,> 100000 nM
